Laboratory results reported in publication PMC6538953, “Metal Ions Activate the Human Taste Receptor TAS2R7” (Chemical Senses, 2019).

Target: T1, human TAS2R7 E264^7.32L mutant (Homo sapiens, UniProt Q9NYW3, E264L)
T1 construct: signal peptide: first 45 amino acid residues of rat somatostatin receptor 3 (N); expressed in transfected cells; host or cells: HEK293 PEAKrapid (ATCC CRL-2828), transient, co-transfected with Gα16-gust44
T1 sequence (Q9NYW3 1-318 E264L): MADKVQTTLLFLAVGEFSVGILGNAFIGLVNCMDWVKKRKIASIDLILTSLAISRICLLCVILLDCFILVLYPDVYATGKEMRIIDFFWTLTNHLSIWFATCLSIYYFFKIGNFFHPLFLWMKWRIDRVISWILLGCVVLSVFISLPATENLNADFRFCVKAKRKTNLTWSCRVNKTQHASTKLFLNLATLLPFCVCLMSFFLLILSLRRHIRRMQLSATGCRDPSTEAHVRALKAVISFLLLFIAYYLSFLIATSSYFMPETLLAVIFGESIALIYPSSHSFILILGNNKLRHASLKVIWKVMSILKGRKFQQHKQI
Assay: Calcium mobilization assay, TAS2R7 mutant E264L
Format: cell-based
Settings: 20 mM metal ions except 0.16 mM Al2(SO4)3; cromolyn 10 mM; Figure 6B
Description: The coding sequences of human TAS2Rs were amplified from human genomic DNA, then subcloned into pcDNA3.1(+) vector, with the herpes simplex virus glycoprotein D epitope (HSV) at the C-terminal and a signal peptide consisting of the first 45 amino acid residues of the rat somatostatin receptor 3 at the N-terminal, essentially as described previously ([Bufe et al. 2002]). Point mutations in human TAS2R7 (NCBI Reference Sequence: NP_076408.1) were constructed by site-directed mutagenesis. All the constructs were confirmed by Sanger sequencing.
Human embryonic kidney 293 (PEAKrapid, ATCC # CRL-2828) cells were cultured in Opti-MEM medium with 4% fetal bovine serum. One day before transfection, cells were seeded on a 96-well plate at a density of 25 000 per well. Cells were then transiently transfected with a TAS2R construct (0.1 µg/well) along with a G protein Gα16-gust44 (0.1 µg/well) construct by Lipofectamine 2000 (0.5 µl/well). For controls, only Gα16-gust44 was used (mock transfection). Twenty-four hours after transfection, cells were washed with HBSS including 10 mM HEPES and loaded with Fluo-4 in the dark for 1 h. After incubation, cells were washed 2 times with HBSS (including 10 mM HEPES), incubated in the dark for another 30 min, and then washed with assay solution once more before running the assay using a FlexStation III reader. Relative fluorescence units (excitation at 494 nm, emission at 516 nm, and auto cutoff at 515 nm) were read every 2 s for 2 min. Calcium mobilization traces were recorded.
Calcium mobilization traces were raw data obtained from single wells. Changes in fluorescence (ΔF) were calculated as the peak fluorescence minus baseline fluorescence ([Lei et al. 2015]). The calcium mobilization was quantified as the percentage of change (ΔF) relative to baseline (F). […] Calcium mobilization traces and bar graphs along with dose-dependent plots were all generated by GraphPad Prism 7. Analysis of variance with Dunnett’s multiple comparisons test was used for statistical analysis. *P < 0.05. […]

In the case of `O=C(O)c1cc(=O)c2c(OCC(O)COc3cccc4oc(C(=O)O)cc(=O)c34)cccc2o1` [cromolyn, reference compound], the “Response of E264L mutant receptor” value is reported as “reduced”.
